From PubChem BioAssay AID2060899 (Molecular Pharmacology Branch, DTP, NCI, 2025)
pIC50: −log10 of the molar value. Values belong to the compound of their own block, whether it stands above or below them.

Test system: 565726-208-R1-J5-PDC complex spheroids, growth inhibition
Assay: Anticancer human tumor 565726-208-R1-J5-PDC patient-derived pancreatic adenocarcinoma cell line growth inhibition [RAS]
Conditions: for pIC50: curve of first compound; for viability, T/C: stronger effect = lower value
Excerpt: RAS pathway inhibitors in Combinations in Complex Spheroids
A high-throughput screen of multi-cell type tumor spheroids was designed to identify active combinations of RAS pathway inhibitors and targeted small molecules. Complex spheroids include a stromal component modeled by human endothelial cells (HUVEC) and fibroblasts modeled by human mesenchymal stem cells (MSCs). The concentration ranges selected for each drug and investigational agent were based upon clinically achievable concentrations if the clinical Cmax of the agent was known.
Compounds. The drugs and investigational agents: abemaciclib (NSC768073), cobimetinib (NSC768068), divarasib (GDC6063, NSC841802), docetaxel (NSC628503), GDC-1971 (RLY-1971, NSC841576), gemcitabine (NSC613327), inavolisib (NSC800729), ipatasertib (NSC767898), KB-0742 (NSC834161), MRTX-1133 (NSC836407), osimertinib (NSC779217), RMC-4630 (NSC839698), RMC-6236 (NSC851965), RMC-6291 (NSC852671), Ro-3306 (NSC812927), sapanisertib (NSC764658), SN-38 (NSC673596), staurosporine (NSC755774), SY5609 (NSC837396), and tovorafenib (DAY101, NSC766906), were obtained from the National Cancer Institute (NCI) Developmental Therapeutics Program Chemical Repository. The FDA-approved anticancer drug set is available from the NCI Developmental Therapeutics Program. […] The stock solutions were prepared in dimethyl sulfoxide (DMSO, Sigma-Aldrich, St. Louis, MO, cat. D2650) at 800-fold the tested concentration and stored at -70 degrees C prior to their use. All drugs and investigational agents were tested over a range starting from a high concentration at or near the clinical Cmax and decreasing in half-log increments. If the clinical Cmax for an agent had not been determined, the highest concentration tested was 10 microM.
Cell Culture. All cells were maintained in an incubator at 37 degrees C and 5% CO2 with 95% humidity. The PDC lines were cultured according to standard operating procedures established by the NCI PDMR. All PDCs were thawed and cultured in Matrigel-coated flasks prepared with a working solution of 1X Ham's F-12 nutrient mix, without supplementation (Invitrogen, Waltham, MA, cat. 11765054), 100 U/mL penicillin-streptomycin (Invitrogen, cat. 15140122), and 2.5% Matrigel (Corning Inc., Corning, NY, cat. 354248) for the first three passages. The 362531-283-R-J2-PDC and 782815-120-R-J1-PDC lines were cultured in 6C/Colon 1B media, which includes advanced DMEM/F-12 (Thermo Fisher Scientific, cat. 12634028), 10 mM HEPES (Thermo Fisher Scientific, cat. 15630080), 1X GlutaMAX supplement (Thermo Fisher Scientific, cat. 35050061), 0.1 mg/mL primocin (InvivoGen, San Diego, CA, cat. ant-pm-2), 10% defined fetal bovine serum, heat inactivated (HyClone Laboratories Inc., Logan, UT, cat. SH30070.03HI), 50% L-WRN conditioned media (ATCC, cat. CRL-3276), 1.25 mM N-Acetyl-L-cysteine (Sigma-Aldrich, cat. A9165), 10 mM nicotinamide (Sigma-Aldrich, cat. N0636), 1X B-27 supplement (Thermo Fisher Scientific, cat. 17504044), 1X N-2 supplement (Thermo Fisher Scientific, cat. 17502048), 50 ng/mL human EGF (Thermo Fisher Scientific, cat. PHG0311), and 10 microM Y-27632 dihydrochloride (Tocris Bioscience, cat. 1254). The K12877-001-R-J1-PDC line was cultured in 6I media, which includes all 6C/Colon 1B media plus 10 ng/mL human FGF-10 (PeproTech, cat. 100-26), 1 ng/mL human FGF-2 (PeproTech, cat. 100-18B), 1 µM prostaglandin E2 (Tocris Bioscience, cat. 2296), […] hydrocortisone (Sigma-Aldrich, cat. H4001), and […] bovine insulin (Sigma-Aldrich, cat. I6634). The K86415-001-R-J1-PDC line was cultured in 6D media, which includes all 6C/Colon 1B media components minus the L-WRN conditioned media. The 485176-168-R4-J1-PDC was cultured in PANC media, which includes all 6C/Colon 1B media plus 100 ng/mL human FGF-10 (PeproTech, cat. 100-26), 500 nM SB-431542 (Selleckchem, cat. S1067), and 10 nM gastrin (Tocris Bioscience, cat. 3006). […]
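Further: spheroids exposed to compounds for seven days before readout.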
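Wherever viability, T/C is given: 100% = DMSO vehicle control viability.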

pIC50 (second compound 0.0316 µM): 6.23
pIC50 (second compound 0.1 µM): < 6.00
pIC50 (second compound 0.316 µM): 7.02
pIC50 (second compound 1 µM): 7.11
pIC50 (second compound 3.16 µM): 7.08
pIC50 (second compound 10 µM): 7.58
SMILES: O=C(c1ccc(F)c(F)c1Nc1ccc(I)cc1F)N1CC(O)([C@@H]2CCCCN2)C1 + C#Cc1c(F)ccc2cc(O)cc(-c3ncc4c(N5CC6CCC(C5)N6)nc(OCC56CCCN5CC(F)C6)nc4c3F)c12
viability, T/C (second compound 0.0316 µM, first compound 0.00316 µM): 118%
viability, T/C (second compound 0.0316 µM, first compound 0.01 µM): 131%
viability, T/C (second compound 0.0316 µM, first compound 0.0316 µM): 74.8%
viability, T/C (second compound 0.0316 µM, first compound 0.1 µM): 76.5%
viability, T/C (second compound 0.0316 µM, first compound 0.316 µM): 78.3%
viability, T/C (second compound 0.0316 µM, first compound 1 µM): 33.3%
viability, T/C (second compound 0.1 µM, first compound 0.00316 µM): 116%
viability, T/C (second compound 0.1 µM, first compound 0.01 µM): 138%
viability, T/C (second compound 0.1 µM, first compound 0.0316 µM): 69.1%
viability, T/C (second compound 0.1 µM, first compound 0.1 µM): 62.3%
viability, T/C (second compound 0.1 µM, first compound 0.316 µM): 63.6%
viability, T/C (second compound 0.1 µM, first compound 1 µM): 34.8%
viability, T/C (second compound 0.316 µM, first compound 0.00316 µM): 117%
viability, T/C (second compound 0.316 µM, first compound 0.01 µM): 118%
viability, T/C (second compound 0.316 µM, first compound 0.0316 µM): 67.3%
viability, T/C (second compound 0.316 µM, first compound 0.1 µM): 53.9%
viability, T/C (second compound 0.316 µM, first compound 0.316 µM): 62.7%
viability, T/C (second compound 0.316 µM, first compound 1 µM): 31%
viability, T/C (second compound 1 µM, first compound 0.00316 µM): 133%
viability, T/C (second compound 1 µM, first compound 0.01 µM): 103%
viability, T/C (second compound 1 µM, first compound 0.0316 µM): 62.8%
viability, T/C (second compound 1 µM, first compound 0.1 µM): 43%
viability, T/C (second compound 1 µM, first compound 0.316 µM): 58%
viability, T/C (second compound 1 µM, first compound 1 µM): 28.8%
viability, T/C (second compound 3.16 µM, first compound 0.00316 µM): 109%
viability, T/C (second compound 3.16 µM, first compound 0.01 µM): 91.7%
viability, T/C (second compound 3.16 µM, first compound 0.0316 µM): 65.6%
viability, T/C (second compound 3.16 µM, first compound 0.1 µM): 38.8%
viability, T/C (second compound 3.16 µM, first compound 0.316 µM): 43.7%
viability, T/C (second compound 3.16 µM, first compound 1 µM): 17.8%
viability, T/C (second compound 10 µM, first compound 0.00316 µM): 88.1%
viability, T/C (second compound 10 µM, first compound 0.01 µM): 63%
viability, T/C (second compound 10 µM, first compound 0.0316 µM): 39%
viability, T/C (second compound 10 µM, first compound 0.1 µM): 38.9%
viability, T/C (second compound 10 µM, first compound 0.316 µM): 22.1%
viability, T/C (second compound 10 µM, first compound 1 µM): 5.94%

pIC50 (second compound 0.000949 µM): 6.50
pIC50 (second compound 0.003 µM): > 7.50
pIC50 (second compound 0.00949 µM): > 7.50
pIC50 (second compound 0.03 µM): > 7.50
pIC50 (second compound 0.0949 µM): > 7.50
pIC50 (second compound 0.3 µM): > 7.50
SMILES: CC(Nc1ccc2c(c1)OCCn1cc(N3C(=O)OCC3C(F)F)nc1-2)C(N)=O (centres undefined) + CCn1c(-c2cc(N3CCN(C)CC3)cnc2C(C)OC)c2c3cc(ccc31)-c1csc(n1)CC(NC(=O)C1CC1C)C(=O)N1CCCC(N1)C(=O)OCC(C)(C)C2
viability, T/C (second compound 0.000949 µM, first compound 0.0316 µM): 62.7%
viability, T/C (second compound 0.000949 µM, first compound 0.1 µM): 49%
viability, T/C (second compound 0.000949 µM, first compound 0.316 µM): 50.6%
viability, T/C (second compound 0.000949 µM, first compound 1 µM): 47.7%
viability, T/C (second compound 0.000949 µM, first compound 3.16 µM): 40.2%
viability, T/C (second compound 0.000949 µM, first compound 10 µM): 32.9%
viability, T/C (second compound 0.003 µM, first compound 0.0316 µM): 49.7%
viability, T/C (second compound 0.003 µM, first compound 0.1 µM): 48.4%
viability, T/C (second compound 0.003 µM, first compound 0.316 µM): 39.7%
viability, T/C (second compound 0.003 µM, first compound 1 µM): 37.2%
viability, T/C (second compound 0.003 µM, first compound 3.16 µM): 36.3%
viability, T/C (second compound 0.003 µM, first compound 10 µM): 24.2%
viability, T/C (second compound 0.00949 µM, first compound 0.0316 µM): 44.5%
viability, T/C (second compound 0.00949 µM, first compound 0.1 µM): 37.4%
viability, T/C (second compound 0.00949 µM, first compound 0.316 µM): 32.9%
viability, T/C (second compound 0.00949 µM, first compound 1 µM): 29.6%
viability, T/C (second compound 0.00949 µM, first compound 3.16 µM): 26.4%
viability, T/C (second compound 0.00949 µM, first compound 10 µM): 19.5%
viability, T/C (second compound 0.03 µM, first compound 0.0316 µM): 31.9%
viability, T/C (second compound 0.03 µM, first compound 0.1 µM): 26.9%
viability, T/C (second compound 0.03 µM, first compound 0.316 µM): 26.8%
viability, T/C (second compound 0.03 µM, first compound 1 µM): 24.9%
viability, T/C (second compound 0.03 µM, first compound 3.16 µM): 22.4%
viability, T/C (second compound 0.03 µM, first compound 10 µM): 13.3%
viability, T/C (second compound 0.0949 µM, first compound 0.0316 µM): 24.8%
viability, T/C (second compound 0.0949 µM, first compound 0.1 µM): 24.6%
viability, T/C (second compound 0.0949 µM, first compound 0.316 µM): 23.1%
viability, T/C (second compound 0.0949 µM, first compound 1 µM): 18.5%
viability, T/C (second compound 0.0949 µM, first compound 3.16 µM): 18.4%
viability, T/C (second compound 0.0949 µM, first compound 10 µM): 12.1%
viability, T/C (second compound 0.3 µM, first compound 0.0316 µM): 22.6%
viability, T/C (second compound 0.3 µM, first compound 0.1 µM): 20.9%
viability, T/C (second compound 0.3 µM, first compound 0.316 µM): 20.1%
viability, T/C (second compound 0.3 µM, first compound 1 µM): 19.3%
viability, T/C (second compound 0.3 µM, first compound 3.16 µM): 15.6%
viability, T/C (second compound 0.3 µM, first compound 10 µM): 10.7%
